Values quoted from earlier work, collected in patent US20130303628A1, “CURCUMINOID SOLID DISPERSION FORMULATION” (ABBOTT LABORATORIES, priority 2010, published 2013).

Conditions: acidic and neutral pH

In the case of `COc1cc(C=CC(=O)CC(=O)C=Cc2ccc(O)c(OC)c2)ccc1O` [Curcumin, 1,7-Bis-(4-hydroxy-3-methoxyphenyl)-hepta-1,6-diene-3,5-dione], the solubility in water is given as “practically insoluble”.
